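Compound exposure: 48 hours, 5 concentrations, 96-well plates. GI50 marks 50% less growth. At the TGI there is no net growth.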
Key:
Test in all cases: NCI-60 cell line screen, 48 h; in the data active = GI50 below about 0.43 µM; inactive = the rest
[1] = system: T-47D breast
[2] = system: SK-OV-3 ovarian
[3] = system: MOLT-4 leukemia
[4] = system: CAKI-1 renal
[5] = system: OVCAR-8 ovarian
[6] = system: HS 578T breast
[7] = system: MCF7 breast
[8] = system: NCI-H23 lung
[9] = system: A549 NSCLC
[10] = system: SNB-75 CNS
[11] = system: K-562 leukemia
[12] = system: MDA-MB-231 breast
[13] = system: HOP-92 NSCLC
[14] = system: SN12C renal
[15] = system: SF-295 CNS
[16] = system: NCI/ADR-RES ovarian
[17] = system: 786-0 renal
[18] = system: OVCAR-5 ovarian
[19] = system: MALME-3M melanoma
[20] = system: HT29 colon
[21] = system: ACHN renal
[22] = system: SNB-19 CNS
[23] = system: NCI-H460 lung
[24] = system: LOX IMVI melanoma
[25] = system: HCC-2998 colon
[26] = system: COLO 205 colon
[27] = system: TK-10 renal
[28] = system: M14 melanoma
[29] = system: IGROV1 ovarian
[30] = system: DU-145 prostate
[31] = system: HOP-62 NSCLC
[32] = system: UO-31 renal
[33] = system: MDA-MB-435
[34] = system: CCRF-CEM leukemia
[35] = system: KM12 colon
[36] = system: NCI-H522 lung
[37] = system: A498 renal
[38] = system: HL-60(TB) leukemia
[39] = system: PC-3 prostate
[40] = system: NCI-H226 lung
[41] = system: SW-620 colon
[42] = system: EKVX NSCLC
[43] = system: U251 CNS
[44] = system: SF-539 CNS
[45] = system: SK-MEL-2 melanoma
[46] = system: SK-MEL-5 melanoma
[47] = system: SF-268 CNS
[48] = system: HCT-15 colon
[49] = system: SK-MEL-28 melanoma
[50] = system: OVCAR-4 ovarian
[51] = system: OVCAR-3 ovarian
[52] = system: MDA-N
[53] = system: SR leukemia
[54] = system: RPMI-8226 leukemia
[55] = system: BT-549 breast
[56] = system: UACC-257 melanoma
[57] = system: UACC-62 melanoma
[58] = system: HCT-116 colon
[59] = system: RXF 393 renal

CC1(C)OC(CP(c2ccccc2)c2ccccc2)C(CP(c2ccccc2)c2ccccc2)O1 (centres undefined)
> 38.1 µM: TGI [35]
> 55.5 µM: TGI [30]
14.4 µM: TGI [54]
2.75 µM: TGI [26]
> 100 µM: TGI [2] | TGI [3] | TGI [4] | TGI [5] | TGI [6] | TGI [7] | TGI [9] | TGI [11] | TGI [12] | TGI [14] | TGI [15] | TGI [16] | TGI [17] | TGI [20] | TGI [21] | TGI [22] | TGI [23] | TGI [24] | TGI [25] | TGI [27] | TGI [28] | TGI [29] | TGI [31] | TGI [32] | TGI [33] | TGI [37] | TGI [39] | TGI [40] | TGI [41] | TGI [42] | TGI [43] | TGI [44] | TGI [47] | TGI [48] | TGI [49] | TGI [51] | TGI [53] | TGI [55] | TGI [56] | TGI [57] | TGI [58]
active: GI50 [1] 0.173 µM
> 22.5 µM: TGI [8]
> 26.4 µM: TGI [46]
> 22.7 µM: TGI [36]
inactive: GI50 [10] 0.865 µM | GI50 [21] 2.98 µM | GI50 [31] 0.56 µM | GI50 [32] 2.78 µM | GI50 [54] 2.75 µM
> 27.7 µM: TGI [13]
41.1 µM: TGI [19]
0.947 µM: TGI [1]
45.5 µM: TGI [34]
> 28.1 µM: TGI [52]
> 87.3 µM: TGI [50]
7.73 µM: TGI [18]
1.84 µM: TGI [38]
5.33 µM: TGI [10]
10.7 µM: TGI [45]

OC1[C@H](O)CN(OCc2ccccc2)C[C@@H]1O (some centres undefined)
> 100 µM: TGI [1] | TGI [3] | TGI [4] | TGI [5] | TGI [6] | TGI [7] | TGI [8] | TGI [9] | TGI [10] | TGI [11] | TGI [12] | TGI [13] | TGI [14] | TGI [15] | TGI [16] | TGI [17] | TGI [18] | TGI [19] | TGI [20] | TGI [21] | TGI [22] | TGI [23] | TGI [24] | TGI [25] | TGI [26] | TGI [27] | TGI [28] | TGI [29] | TGI [30] | TGI [31] | TGI [32] | TGI [33] | TGI [34] | TGI [35] | TGI [36] | TGI [37] | TGI [38] | TGI [39] | TGI [40] | TGI [41] | TGI [42] | TGI [43] | TGI [44] | TGI [45] | TGI [46] | TGI [47] | TGI [48] | TGI [49] | TGI [59] | TGI [50] | TGI [51] | TGI [52] | TGI [53] | TGI [54] | TGI [55] | TGI [56] | TGI [57] | TGI [58]

CN1C(=O)C(CC(=O)O)NC1=S (centres undefined)
> 100 µM: TGI [1] | TGI [2] | TGI [3] | TGI [4] | TGI [5] | TGI [6] | TGI [7] | TGI [8] | TGI [9] | TGI [10] | TGI [11] | TGI [12] | TGI [13] | TGI [14] | TGI [15] | TGI [16] | TGI [17] | TGI [18] | TGI [19] | TGI [20] | TGI [21] | TGI [22] | TGI [23] | TGI [24] | TGI [25] | TGI [26] | TGI [27] | TGI [28] | TGI [29] | TGI [30] | TGI [31] | TGI [32] | TGI [33] | TGI [34] | TGI [35] | TGI [36] | TGI [37] | TGI [38] | TGI [39] | TGI [41] | TGI [42] | TGI [43] | TGI [44] | TGI [45] | TGI [46] | TGI [47] | TGI [48] | TGI [49] | TGI [59] | TGI [51] | TGI [52] | TGI [53] | TGI [54] | TGI [55] | TGI [56] | TGI [57] | TGI [58]

Reference: PubChem BioAssay (NCI)
